Data from EP4813383A1, “USE OF TAFAMIDIS AND PHARMACEUTICALLY ACCEPTABLE SALT THEREOF IN PREVENTION, ALLEVIATION, OR TREATMENT OF DISEASES ASSOCIATED WITH HIF-2a” (Huaya Jiyuan (Shenzhen) Pharmaceutical Co., Ltd., priority 2024, dated 2025).

Assays:
[1] = system: aristolochic acid-induced zebrafish model; assay: Aristolochic acid-induced zebrafish model: cardiac erythrocyte staining intensity (renal anemia); format: in vivo, Wild-type AB strain zebrafish; conditions: 30 hours, normal group 100%, model group 46%
Description: Wild-type AB strain zebrafish at 2 days post-fertilization are randomly selected and placed in a 6-well plate, with 30 zebrafish treated in each well (treatment group). Other than the normal control group, all treatment groups are exposed to aristolochic acid in aqueous solution to establish a zebrafish renal anemia model. After treatment at 28 °C for 18 hours, a normal control group and a model control group are set up simultaneously. Tafamidis samples are administered in aqueous solution to the treatment groups separately (at concentrations of 0.1 µM and 1 µM separately). Water is administered to the normal control group and the model control group correspondingly, with a volume of 3 mL per well. After continued treatment at 28 °C for 30 hours, staining is performed using o-dianisidine. After staining, 10 zebrafish are randomly selected from each treatment group and photographed under a dissecting microscope. Data is collected using NIS-Elements D 3.20 advanced image processing software, and the staining intensity of cardiac erythrocytes in the zebrafish is analyzed. The statistical significance of this indicator is used to evaluate the efficacy of the sample in alleviating renal anemia. Statistical analysis is performed using SPSS 26.0 software, and p < 0.05 indicates a statistically significant difference.

[2] = system: erythropoietin (EPO) gene expression; assay: qRT-PCR assay of EPO gene expression in 786-O renal carcinoma cells; format: cell-based; conditions: 20 µM, 24 hours, relative to the vehicle, GAPDH internal control
Description: (§1) Experimental method: 786-O renal carcinoma cells are seeded into a 12-well plate. After 24 hours, tafamidis is added at different concentrations (1 µM, 10 µM, and 20 µM, separately), and the cells are co-incubated with the compound for 24 hours. No treatment is applied to the vehicle group. RNA is extracted using a TRIZOL reagent. cDNA transcription is performed using an All-in-one™ First-Strand cDNA Synthesis Kit (for specific operating procedures, see the manufacturer's instructions). A SYBR reagent is used for fluorescence signal detection, and GAPDH is used as an internal control. The qRT-PCR primers are as follows: • GAPDH_fwd, […]; • GAPDH_rev, TGGTGAAGACGCCAGTGGA; • VEGF_fwd, […]; • VEGF_rev, […]; • EPO_fwd, […]; • EPO_rev, […].

[3] = system: Cisplatin-induced renal injury and anemia rat model; assay: Cisplatin-induced renal injury and anemia rat model; format: in vivo, Male Sprague-Dawley (SD) rats
Description: Male Sprague-Dawley (SD) rats are allowed a one-week acclimation period, after which cisplatin (6 mg/kg) is administered through tail vein injection. A second injection is given one week later. Two weeks after the first administration, successful establishment of a renal disease model is confirmed by measuring serum creatinine and urea levels. The established rat model is randomly divided into four groups: a control group (n = 7), a cisplatin group (n = 6), a roxadustat group (n = 6), and a tafamidis group (n = 6). The roxadustat group and tafamidis group are orally administered the corresponding compound (roxadustat or tafamidis) at 10 mg/kg daily for four consecutive weeks. A corresponding solvent is administered to the control group and cisplatin group rat models based on the same dosing regimen. Urine samples are collected on the day following the final treatment, so as to measure UTP and UCREA. Hematological analysis is performed using a Mindray BC-5150 automated hematology analyzer, and urinalysis is performed using a Mindray BS-2000M automated biochemical analyzer, both using commercially available kits according to the manufacturers' instructions. After sample collection, the rats are euthanized. Statistical significance is determined by one-way analysis of variance (ANOVA), and then a Dunnett's test is performed for comparison with the cisplatin group (*P < 0.05, **P < 0.01, ***P < 0.001).
Left kidney samples collected from cisplatin-induced rats are fixed in 4% paraformaldehyde, dehydrated, embedded in paraffin, and sectioned. The tissue sections are 4 µm thick, and are subsequently subjected to histochemical staining such as hematoxylin-eosin (H&E), periodic acid-Schiff (PAS), and Masson's trichrome staining. After staining, the sections are scanned using advanced three-dimensional histological imaging technology, and high-resolution images are captured using a Pannoramic DESK/MIDI/250/1000 system. To evaluate renal tubular injury, 10 fields are randomly selected from each sample, and examined at a 40× magnification. The degree of renal tubular injury is assessed using a semi-quantitative scoring system (Paller score): 0 (no injury), 1 (<25% injury), 2 (25% to 50% injury), 3 (50% to 75% injury), and 4 (>75% injury). In addition, the entire tissue section is assessed at a 0.7× magnification to determine the extent of collagen fiber deposition shown by Masson's trichrome staining. Semi-quantitative analysis of the collagen fiber area is performed using Image-Pro Plus 6.0 software (Media Cybernetics, Rockville, MD, USA). For glomerular evaluation, 20 glomeruli are randomly selected from each rat and analyzed at a 63× magnification, using mesangial matrix expansion shown by PAS staining as an indicator. Semi-quantitative analysis of the mesangial matrix is likewise performed using Image-Pro Plus 6.0 software. Statistical significance is determined by one-way analysis of variance (ANOVA), and then a Dunnett's test is performed for comparison with the cisplatin group (*P < 0.05, **P < 0.01, ***P < 0.001).
Immunofluorescence staining is performed on 4 µm-thick kidney tissue sections. The sections are deparaffinized and rehydrated through ethanol, and then is subjected to microwave treatment in a 0.01 mol/L sodium citrate buffer (pH 6.0) for antigen retrieval. Subsequently, the sections are incubated overnight at 4 °C with a primary antibody against α-SMA (19245S, Cell Signaling Technology). After incubation, the sections is incubated at room temperature for 30 minutes with an HRP-conjugated secondary antibody (PK10009, Proteintech Group), and localization is performed using a DAB kit. After staining, the sections are scanned using advanced three-dimensional histological imaging technology, and high-resolution images are captured using a Pannoramic DESK/MIDI/250/1000 system. The entire tissue section is assessed at a 0.7× magnification to determine an α-SMA-positive region. […]

[4] = system: vascular endothelial growth factor (VEGF) gene expression; assay: qRT-PCR assay of VEGF gene expression in 786-O renal carcinoma cells; format: cell-based; conditions: 24 hours, relative to the vehicle, GAPDH internal control
Description: as §1

[5] = 10 mg/kg daily oral for four weeks, kidney tissue
[6] = 10 mg/kg daily oral for four weeks, urine, versus cisplatin group
[7] = 10 mg/kg daily oral for four weeks, urine, versus cisplatin group, p < 0.05

| SMILES | cardiac red blood cell count ([1]; 0.1 µM in aqueous solution) [%] | cardiac red blood cell count ([1]; 1 µM in aqueous solution) [%] | upregulates erythropoietin (EPO) gene expression [2] [fold] | erythropoietin (EPO) protein levels, Western blot [3, 5] | α-SMA protein expression, Western blot [3, 5] | cisplatin-induced renal injury, semi-quantitative scoring (H&E, Masson's trichrome, PAS) ([3]; 10 mg/kg daily oral for four weeks, left kidney sections) | UTP levels [3, 6] | UCREA levels [3, 7] | UTP/UCREA ratio [3, 7] | Gross observation of kidney tissues (color) ([3]; 10 mg/kg daily oral for four weeks, normal control healthy red, cisplatin group white discoloration and edema) | Red blood cells (RBCs) ([3]; 10 mg/kg daily oral, week 4, cisplatin group 6.3 ± 0.3 ×10^12, p < 0.001) | Hematocrit (HCT) ([3]; 10 mg/kg daily oral, week 4, cisplatin group 46.2 ± 1.8%, p < 0.001) [%] | Hemoglobin (HGB) ([3]; 10 mg/kg daily oral, week 4, cisplatin group 127.7 ± 4.7, p < 0.05) [g/L] | upregulates vascular endothelial growth factor (VEGF) gene expression ([4]; 10 µM) [fold] | upregulates VEGF gene expression ([4]; 20 µM) [fold] |
| --- | --- | --- | --- | --- | --- | --- | --- | --- | --- | --- | --- | --- | --- | --- | --- |
| O=C(O)c1ccc2nc(-c3cc(Cl)cc(Cl)c3)oc2c1 [tafamidis, 2-(3,5-dichlorophenyl)-1,3-benzoxazole-6-carboxylic acid] | 60 | 65 | 0.9 | increasing | significantly reduces | significantly alleviates | little effect | increases | reducing | normal red color | 8.1 ± 0.4 × 10^12 cells/L | 58.4 ± 2.9 | 161.8 ± 9.3 | 0.5 | 1.4 |
| Cc1nc(C(=O)NCC(=O)O)c(O)c2ccc(Oc3ccccc3)cc12 [roxadustat] |  |  |  |  |  |  | increases |  |  |  |  |  |  |  |  |
